Source: patent US20090029355A1, “Abnormalities of Phosphatase 2A (PP2A) for Diagnosis and Treatment of Alzheimer's Disease” (priority 2004, published 2009)
Entries after “also recorded” stand apart in the source; their conditions may differ.

Assays:
[1] = system: Erk1/2 phosphorylation in AC cells; assay: Erk1/2 phosphorylation on Western blots in AC fibroblasts; format: cell-based, human; conditions: about 10 nM OA, about 10 nM BK, about 10 min
Experimental: (§1) After serum-starving overnight, cells are treated as such: 1) BK treatment for about 10 min, 2) pretreatment with about 10 nM OA for about 15 min followed by BK treatment and another dose of OA for about 10 min. Reactions are terminated, cells are lysed in a lysis buffer, and the extent of Erk1/2 phosphorylation and levels of the total Erk1/2 are determined using Western blots. After normalizing with signals of the total Erk1/2, the ratio of BK-stimulated Erk1/2 phosphorylation in the presence and absence of OA is calculated. […]
(§2) Erk1/2 phosphorylation from different treatments was determined on Western blots using an anti-phospho-Erk1/2 antibody (Cell Signaling Technology), the total amount of Erk1/2 protein loaded on the SDS gel was determined by an anti-regular Erk1/2 antibody (Upstate Biotechnology), and was used to normalize the detected phospho-Erk1/2 signals.
(§3) (1) Quantitative PCR values for PP2A mRNA in each sample of 19 AC and 19 AD cell lines were normalized by those of GPDH in the same sample. […] The densitometric values for PP2A were normalized by those of annexin 11 and quantified with UN-SCAN-IT software (Silk Scientific, Inc.) (3) To assess Erk1/2 phosphorylation, ratios for phospho-Erk1/2 over those of the total Erk1/2 were calculated. […]

[2] = system: Erk1/2 phosphorylation in AD cells; assay: Erk1/2 phosphorylation on Western blots in AD fibroblasts; format: cell-based, human; conditions: about 10 nM OA, about 10 nM BK, about 10 min
Experimental: as §1, §2, §3

**Q.** What does the source list for `C=C1[C@@H](O)[C@@H]2O[C@]3(CC[C@H](/C=C/[C@@H](C)[C@@H]4CC(C)=C[C@@]5(O[C@H](C[C@@](C)(O)C(=O)O)CC[C@H]5O)O4)O3)CC[C@H]2O[C@@H]1[C@@H](O)C[C@H](C)[C@H]1O[C@@]2(CCCCO2)CC[C@H]1C` [OA, okadiac acid]?
**A.** Erk1/2 dephosphorylation after BK stimulation in the presence of OA [1]: inhibited Erk1/2 dephosphorylation; also recorded: significantly inhibited; BK-stimulated Erk1/2 phosphorylation on addition of OA [2]: did not further increase Erk1/2 phosphorylation
